From the NIST ThermoML archive (doi:10.1016/j.fluid.2015.12.007) come the findings set out here.

± gives the expanded uncertainty stated by the source.

The conditions of the series: 101.33 kPa, Liquid; for speed of sound: Sing-around technique in a fixed-path interferometer; for mass density: Vibrating tube method.

Take `CCCC[n+]1ccn(C)c1.O=S(=O)([N-]S(=O)(=O)C(F)(F)F)C(F)(F)F`: the speed of sound worked out at 1238.6 ± 1.2 m/s (293.15 K); 1227.4 ± 1.2 m/s (298.15 K); 1216.3 ± 1.2 m/s (303.15 K); 1205.4 ± 1.2 m/s (308.15 K); 1194.7 ± 1.2 m/s (313.15 K); 1184.1 ± 1.2 m/s (318.15 K). Moreover, the mass density is, setting by setting: (293.15 K) 1440.81 ± 0.23 kg/m3; (298.15 K) 1435.99 ± 0.23 kg/m3; (303.15 K) 1431.2 ± 0.22 kg/m3; (308.15 K) 1426.42 ± 0.22 kg/m3; (313.15 K) 1421.66 ± 0.22 kg/m3; (318.15 K) 1416.91 ± 0.22 kg/m3.

Consider `CCCCn1cc[n+](C)c1.COS(=O)(=O)[O-]` [1-butyl-3-methylimidazolium methyl sulfate], for which the speed of sound by setting is: (293.15 K) 1669.8 ± 3.2 m/s; (298.15 K) 1657.1 ± 3.2 m/s; (303.15 K) 1644.6 ± 3.2 m/s; (308.15 K) 1632.4 ± 3.2 m/s; (313.15 K) 1620.4 ± 3.2 m/s; (318.15 K) 1608.8 ± 3.2 m/s. The mass density (293.15 K) was determined as 1211.97 ± 2.8 kg/m3; the mass density (298.15 K) is on record as 1208.61 ± 2.8 kg/m3; the mass density (303.15 K) was found to be 1205.25 ± 2.8 kg/m3; the mass density (308.15 K) is 1201.89 ± 2.8 kg/m3; the mass density (313.15 K) is 1198.54 ± 2.8 kg/m3; the mass density (318.15 K) is recorded as 1195.2 ± 2.8 kg/m3.

Regarding `CCCCn1cc[n+](C)c1.F[B-](F)(F)F` [1-butyl-3-methylimidazolium tetrafluoroborate], the speed of sound by setting is: (293.15 K) 1576.6 ± 1.2 m/s; (298.15 K) 1564.9 ± 1.2 m/s; (303.15 K) 1553.6 ± 1.2 m/s; (308.15 K) 1542.2 ± 1.2 m/s; (313.15 K) 1530.9 ± 1.2 m/s; (318.15 K) 1520 ± 1.2 m/s. The mass density runs as follows: (293.15 K) 1204.89 ± 0.15 kg/m3; (298.15 K) 1201.33 ± 0.15 kg/m3; (303.15 K) 1197.78 ± 0.15 kg/m3; (308.15 K) 1194.23 ± 0.15 kg/m3; (313.15 K) 1190.7 ± 0.15 kg/m3; (318.15 K) 1187.18 ± 0.15 kg/m3.

For `CC(O)CO` (stereo not drawn) [1,2-propanediol], the speed of sound came to 1516.4 ± 1.3 m/s (293.15 K); 1505.9 ± 1.3 m/s (298.15 K); 1493.3 ± 1.3 m/s (303.15 K); 1480 ± 1.3 m/s (308.15 K); 1466.3 ± 1.3 m/s (313.15 K); 1452.7 ± 1.3 m/s (318.15 K). The mass density is, setting by setting: (293.15 K) 1035.73 ± 0.14 kg/m3; (298.15 K) 1032.03 ± 0.13 kg/m3; (303.15 K) 1028.31 ± 0.13 kg/m3; (308.15 K) 1024.55 ± 0.13 kg/m3; (313.15 K) 1020.75 ± 0.13 kg/m3; (318.15 K) 1016.92 ± 0.13 kg/m3.
